What was measured:
OCI-Ly3 cells = experiment: 4-day proliferation assay, OCI-Ly3; type: cell-based, human; settings: Homo sapiens, 96 h, 4 days incubation, CellTiterGLO, read-out: Anti-proliferation: OCI-LY-3 IC50
Outline: (§1)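 Each line was plated at 10,000 cells per well for linear growth, with no beta-mercaptoethanol during the assay. OCI-Ly3 cells were below passage 10.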

[1] = system: IL6 secretion by OCI-LY3 ABC-DLBCL cells; experiment: Human IL6 Mesoscale assay (OCI-LY3); type: cell-based; settings: Homo sapiens, 24 h
Outline: (§2)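 100,000 cells/well treated with compound in 9 twofold steps from 15 μM to 58.6 nM (0.3% DMSO) for 24 h at 37° C; supernatant cytokine measured by MSD electrochemiluminescence sandwich immunoassay. DMSO wells set maximum signal, BTK inhibitor RN486 (30 nM to 131 pM) set maximum inhibition.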

[2] = system: IL10 secretion by OCI-LY3 ABC-DLBCL cells; experiment: Human IL10 Mesoscale assay (OCI-LY3); type: cell-based; settings: Homo sapiens, 24 h
Outline: as §2

[3] = target: full-length MALT1 protein (Strep-MALT1(1-824)-His) (Homo sapiens (Human), UniProt Q9UDY8); experiment: MALT1 Biochemical Protease Assay (Ac-LRSR-AMC substrate); settings: 10 nM FL MALT1, 200 μM Ac-LRSR-AMC, 4 h at RT; read-out: MALT1_Biochemical activity (Ac-LRSR-amc) IC50
Sequence of full-length MALT1 protein (Strep-MALT1(1-824)-His) (Q9UDY8 whole entry): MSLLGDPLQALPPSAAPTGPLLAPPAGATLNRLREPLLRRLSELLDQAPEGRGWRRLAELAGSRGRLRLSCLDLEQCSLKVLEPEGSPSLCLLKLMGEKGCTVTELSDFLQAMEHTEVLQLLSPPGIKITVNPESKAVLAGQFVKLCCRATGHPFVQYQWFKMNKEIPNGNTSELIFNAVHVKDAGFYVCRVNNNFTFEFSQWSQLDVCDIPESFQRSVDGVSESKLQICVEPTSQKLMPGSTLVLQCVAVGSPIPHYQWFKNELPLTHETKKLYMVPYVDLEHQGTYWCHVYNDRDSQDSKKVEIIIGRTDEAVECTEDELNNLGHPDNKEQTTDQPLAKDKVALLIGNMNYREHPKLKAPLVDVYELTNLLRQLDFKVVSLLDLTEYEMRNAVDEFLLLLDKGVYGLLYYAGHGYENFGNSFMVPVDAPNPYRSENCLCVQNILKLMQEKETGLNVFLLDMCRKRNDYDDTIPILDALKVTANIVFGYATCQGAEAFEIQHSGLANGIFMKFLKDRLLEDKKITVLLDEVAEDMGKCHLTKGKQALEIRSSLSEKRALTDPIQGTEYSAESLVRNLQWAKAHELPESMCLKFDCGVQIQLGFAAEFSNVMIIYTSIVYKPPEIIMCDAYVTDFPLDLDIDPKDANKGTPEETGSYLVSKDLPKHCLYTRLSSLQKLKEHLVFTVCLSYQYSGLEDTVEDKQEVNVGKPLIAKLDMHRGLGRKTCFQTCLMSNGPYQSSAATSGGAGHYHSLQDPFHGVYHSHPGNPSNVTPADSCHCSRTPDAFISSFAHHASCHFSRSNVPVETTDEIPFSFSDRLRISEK
Outline: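 Fluorescence from AMC release off the quenched LRSR substrate was read after a 4 h reaction at RT. Values were normalised to no-enzyme and uninhibited controls and fitted for IC50 and Hill coefficient.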

TMD8 cells = experiment: 4-day proliferation assay, TMD8; type: cell-based; settings: Homo sapiens, 96 h, 4 days incubation, CellTiterGLO, read-out: Anti-proliferation: TMD-8 IC50
Outline: as §1

Row | SMILES | IC50 (OCI-Ly3 cells) [µM] | IC50 [1] [µM] | IC50 [2] [µM] | IC50 [3] [µM] | IC50 (TMD8 cells) [µM]
1 | Nc1ncc(-n2ncc(C(=O)Nc3cnc(-n4nccn4)c(Cl)c3)c2C(F)(F)F)c2cccc(F)c12 [Cpd 110, 1-(1-amino-8-fluoroisoquinolin-4-yl)-N-(5-chloro-6-(2H-1,2,3-triazol-2-yl)pyridin-3-yl)-5-(trifluoromethyl)-1H-pyrazole-4-carboxamide] | 0.22 | 0.025 | 0.024 | 0.019 | 1.45
2 | N#Cc1cc(NC(=O)c2cnn(-c3cnc(N)c4c(F)cccc34)c2C(F)(F)F)cnc1-n1nccn1 [Cpd 111, 1-(1-amino-8-fluoroisoquinolin-4-yl)-N-(5-cyano-6-(2H-1,2,3-triazol-2-yl)pyridin-3-yl)-5-(trifluoromethyl)-1H-pyrazole-4-carboxamide] | 0.284 | 0.107 | 0.089 | 0.01 | 3.31
3 | Cc1nc(-n2nccn2)c(Cl)cc1NC(=O)c1cnn(-c2cccc3c(=O)[nH]ccc23)c1C(F)(F)F [Cpd 112, N-(5-chloro-2-methyl-6-(2H-1,2,3-triazol-2-yl)pyridin-3-yl)-1-(1-oxo-1,2-dihydroisoquinolin-5-yl)-5-(trifluoromethyl)-1H-pyrazole-4-carboxamide] | 0.966 | 0.115 | 0.098 | 0.017 | 6.31
4 | N#Cc1cc(NC(=O)c2cnn(-c3cccc4c(=O)[nH]ccc34)c2C(F)(F)F)cnc1-n1nccn1 [Cpd 113, N-(5-cyano-6-(2H-1,2,3-triazol-2-yl)pyridin-3-yl)-1-(1-oxo-1,2-dihydroisoquinolin-5-yl)-5-(trifluoromethyl)-1H-pyrazole-4-carboxamide] | 0.912 | 0.17 | 0.079 | 0.011 | 13.8
5 | N#Cc1cc(NC(=O)c2cnn(-c3cccc4ncsc34)c2C(F)(F)F)cnc1-n1nccn1 [Cpd 114, 1-(benzo[d]thiazol-7-yl)-N-(5-cyano-6-(2H-1,2,3-triazol-2-yl)pyridin-3-yl)-5-(trifluoromethyl)-1H-pyrazole-4-carboxamide] | 0.193 | 0.034 | 0.029 | 0.011 | 2.69
6 | O=C(Nc1cnc(-n2nccn2)c(Cl)c1)c1cnn(-c2cncc3c(F)cccc23)c1C(F)(F)F [Cpd 117, N-(5-chloro-6-(2H-1,2,3-triazol-2-yl)pyridin-3-yl)-1-(8-fluoroisoquinolin-4-yl)-5-(trifluoromethyl)-1H-pyrazole-4-carboxamide] | 0.211 | 0.012 | 0.012 | 0.013 | 1.58
7 | N#Cc1cc(NC(=O)c2cnn(-c3cncc4c(F)cccc34)c2C(F)(F)F)cnc1-n1nccn1 [Cpd 118, N-(5-cyano-6-(2H-1,2,3-triazol-2-yl)pyridin-3-yl)-1-(8-fluoroisoquinolin-4-yl)-5-(trifluoromethyl)-1H-pyrazole-4-carboxamide] | 0.158 | 0.017 | 0.012 | 0.015 | 0.832
8 | N#Cc1cc(NC(=O)c2cnn(-c3cccc4nnsc34)c2C(F)(F)F)cnc1-n1nccn1 [Cpd 119, 1-(benzo[d][1,2,3]thiadiazol-7-yl)-N-(5-cyano-6-(2H-1,2,3-triazol-2-yl)pyridin-3-yl)-5-(trifluoromethyl)-1H-pyrazole-4-carboxamide] | 0.193 | 0.072 | 0.04 | 0.013 | 0.355
9 | Cc1nc(-n2nccn2)c(Cl)cc1NC(=O)c1cnn(-c2cccc3nnsc23)c1C(F)(F)F [Cpd 121, 1-(benzo[d][1,2,3]thiadiazol-7-yl)-N-(5-chloro-2-methyl-6-(2H-1,2,3-triazol-2-yl)pyridin-3-yl)-5-(trifluoromethyl)-1H-pyrazole-4-carboxamide] | 0.692 | 0.058 | 0.05 | 0.022 | 1.91
10 | N#Cc1cc(NC(=O)c2cnn(-c3cccc4c(F)cccc34)c2C(F)(F)F)cnc1-n1nccn1 [Cpd 122, N-(5-cyano-6-(2H-1,2,3-triazol-2-yl)pyridin-3-yl)-1-(5-fluoronaphthalen-1-yl)-5-(trifluoromethyl)-1H-pyrazole-4-carboxamide] | 0.132 | 0.052 | 0.056 | 0.013 | 0.162
11 | Cc1cnn(-c2ncc(NC(=O)c3cnn(-c4cccc5ncccc45)c3C(F)(F)F)cc2Cl)n1 [Cpd 125, N-(5-chloro-6-(4-methyl-2H-1,2,3-triazol-2-yl)pyridin-3-yl)-1-(quinolin-5-yl)-5-(trifluoromethyl)-1H-pyrazole-4-carboxamide] | 0.285 | 0.046 | 0.024 | 0.013 | 1.02
12 | O=C(Nc1cnc(-c2ncco2)c(Cl)c1)c1cnn(-c2cccc3c(=O)[nH]ccc23)c1C(F)(F)F [Cpd 127, N-(5-chloro-6-(oxazol-2-yl)pyridin-3-yl)-1-(1-oxo-1,2-dihydroisoquinolin-5-yl)-5-(trifluoromethyl)-1H-pyrazole-4-carboxamide] | 0.432 | 0.029 | 0.026 | 0.015 | 11.2
13 | N#Cc1cc(NC(=O)c2cnn(-c3ccc(N)c4ccccc34)c2C(F)(F)F)cnc1-n1nccn1 [Cpd 132, 1-(4-aminonaphthalen-1-yl)-N-(5-cyano-6-(2H-1,2,3-triazol-2-yl)pyridin-3-yl)-5-(trifluoromethyl)-1H-pyrazole-4-carboxamide] | 0.571 | 0.141 | 0.095 | 0.019 | 7.76
14 | O=C(Nc1cnc(-n2cc(CO)cn2)c(Cl)c1)c1cnn(-c2cccc3ncccc23)c1C(F)(F)F [Cpd 135, N-(5-chloro-6-(4-(hydroxymethyl)-1H-pyrazol-1-yl)pyridin-3-yl)-1-(quinolin-5-yl)-5-(trifluoromethyl)-1H-pyrazole-4-carboxamide] | 1.31 | 0.098 | 0.083 | 0.021 | 3.09
15 | O=C(Nc1cnc(-n2nccn2)c(Br)c1)c1cnn(-c2cccc3ncccc23)c1C(F)(F)F [Cpd 139, N-(5-bromo-6-(2H-1,2,3-triazol-2-yl)pyridin-3-yl)-1-(quinolin-5-yl)-5-(trifluoromethyl)-1H-pyrazole-4-carboxamide] | 0.275 | 0.05 | 0.036 | 0.023 | 1.41
16 | Nc1cnn(-c2ncc(NC(=O)c3cnn(-c4cccc5ncccc45)c3C(F)(F)F)cc2Cl)n1 [Cpd 154, N-(6-(4-amino-2H-1,2,3-triazol-2-yl)-5-chloropyridin-3-yl)-1-(quinolin-5-yl)-5-(trifluoromethyl)-1H-pyrazole-4-carboxamide] | 0.395 | 0.098 | 0.095 | 0.019 | 2.24
17 | Nc1ncc(-n2ncc(C(=O)Nc3cnc(-n4nccn4)c(Cl)c3)c2C(F)(F)F)c2ccccc12 [Cpd 155, 1-(1-aminoisoquinolin-4-yl)-N-(5-chloro-6-(2H-1,2,3-triazol-2-yl)pyridin-3-yl)-5-(trifluoromethyl)-1H-pyrazole-4-carboxamide] | 0.302 | 0.093 | 0.068 | 0.019 | 1.38

From patent US10954214B2 (Janssen Pharmaceutica NV, priority 2016, dated 2021)
